Data from patent US10987407B2, “Methods and compositions for treating hypoglycemic disorders” (priority 2007, dated 2021).
“Also recorded” adds a separate entry of the source. Like-named read-outs stand apart in the source and are kept apart here. Marks after values point to notes of the source that are not given here.

Columns and labels:
[1] = tested on: SUR-1−/− and wild-type mice; assay: Insulin tolerance test (insulin sensitivity); type: in vivo, mouse; details: any of the treatment groups; 0.5 units/kg insulin i.p.
Experimental: (§1) Alzet mini-osmotic pumps (model 2002; Alza, Palo Alto, Calif.) were implanted subcutaneously to deliver exendin-(9-39) (Bachem Bioscience, King of Prussia, Pa.) at a rate of 150 pmol/kg/min or vehicle (0.9% NaCl/1% BSA) for 2 weeks. For determination of fasting blood glucose levels mice were fasted for 12-16 hours. Oral glucose tolerance testing was carried after a 12-16 hour fast by administering 2 g/kg of dextrose by oral gavage (feeding needles; Popper and Sons, Inc., Hyde Park, N.Y.). For insulin tolerance testing mice received 0.5 units/kg of insulin intraperitoneally after a 4 hour fast. Blood glucose levels were measured using a hand-held glucose meter (FreeStyle; TheraSense, Alameda, Calif.). Insulin and glucagon were measured by ELISA (Mouse Endocrine Immunoassay Panel; Linco Research, Inc., St. Charles, Mo.). To determine the mechanism of action for the effect of exendin-(9-39) on fasting blood glucose levels insulin sensitivity was assessed by an insulin tolerance test.

wild-type littermates = assay: Oral glucose tolerance test in wild-type littermates; type: in vivo, mouse; details: wild-type littermates during treatment
Experimental: as §1, with “Mo.).” for “Mo.). To determine the mechanism of action for the effect of exendin-(9-39) on fasting blood glucose levels insulin sensitivity was assessed by an insulin tolerance test.”

SUR-1−/− islets [2] = assay: Perifusion of isolated islets with amino acid ramp, insulin release; type: cell-based, mouse
Experimental: Islets were isolated by collagenase digestion and cultured for 3 days in RPMI 1640 medium containing 10 mM glucose. The culture medium was supplemented with 10% fetal bovine serum, 2 mM glutamine, 100 units/mL penicillin, and 50 μg/mL streptomycin. Islets were incubated at 37° C. in a 5% CO2, 95% air-humidified incubator. Batches of 100 cultured mouse islets were loaded onto a nylon filter in a chamber and perifused with Krebs-Ringer bicarbonate buffer (115 mM NaCl, 24 mM NaHCO3, 5 mM KCl, 1 mM MgCl2, 2.5 mM CaCl2), 10 mM HEPES, pH 7.4) with 0.25% bovine serum albumin at a flow rate of 2 mL/min. Perifusate solutions were gassed with 95% 02, 5% CO2 and maintained at 37° C. Islets were stimulated with a ramp of amino acids. […] Insulin was measured by radioimmunoassay (Linco Research Inc., St. Charles, Mo.).
Given the observed in vivo effects on insulin secretion but not insulin sensitivity, it was next determined whether exendin-(9-39) exerts a direct effect on SUR-1^−/− islet function. […]

SUR-1−/− mice [3] = assay: Fasting hormonal profile (insulin, glucagon, insulin/glucose ratio) during treatment; type: in vivo, mouse
Experimental: as §1, with “Mo.).” for “Mo.). To determine the mechanism of action for the effect of exendin-(9-39) on fasting blood glucose levels insulin sensitivity was assessed by an insulin tolerance test.”

SUR-1−/− mice [4] = assay: Oral glucose tolerance test in SUR-1−/− mice; type: in vivo, mouse
Experimental: as §1, with “Mo.).” for “Mo.). To determine the mechanism of action for the effect of exendin-(9-39) on fasting blood glucose levels insulin sensitivity was assessed by an insulin tolerance test.”

SUR-1−/− islets [5] = assay: cAMP content in static incubations of isolated islets; type: cell-based, mouse
Experimental: Islets were isolated as above, hand-picked and cultured for three days. Cultured islets were preincubated in glucose free Krebs-Ringer bicarbonate buffer for 60 min, 100 nM exendin-(9-39) was added 30 min into the preincubation period. Then, islets were exposed to different treatments for an additional 30 min in the presence of 0.1 mM isobutyl-methylzanthine (IBMX). After incubation, islets were washed 2 times by cold glucose-free Hank's buffer. cAMP was measured in islet lysates by ELISA (GE/Amersham Biosciences, Piscataway, N.J.). The effect of exendin-(9-39) on cAMP was determined in static incubations of isolated islets.

[6] = tested on: subject with congenital hyperinsulinism due to a mutation in ABCC8; assay: Intravenous exendin-(9-39) infusion in fasting subjects with congenital hyperinsulinism; type: in vivo, human
Experimental: After an overnight fast, subject received an intravenous infusion of 0.9% NaCl for 60 min followed by a 6 hour intravenous infusion of exendin-(9-39) at ascending doses every 120 min (100 pmol/kg/min for 120 min, then 300 pmol/kg/min for 120 min and then 500 pmol/kg/min for 120 min). On the second day, 0.9% NaCl was infused intravenously after an overnight fast for a total of 7 hours.
Blood samples for glucose, insulin, C-peptide, glucagon and GLP-1 were obtained at different intervals during the infusions.

SUR-1−/− islets [7] = assay: Cytosolic free Ca2+ measurement (Fura-2) in islets; type: cell-based, mouse
Experimental: Mouse islets were isolated and cultured on poly-[…] coated glass coverslips under the same conditions as described above. The perifusion procedure and cytosolic-free Ca2+([Ca2+]i) measurement were described previously (24). In brief, the coverslip with attached islets was incubated with 15 μM Fura-2 acetoxymethylester (Molecular Probes, Eugene, Oreg.) in Krebs-Ringer bicarbonate buffer with 5 mM glucose for 35 min at 37° C. Islets were then perifused with Krebs-Ringer bicarbonate buffer with 0.25% bovine serum albumin at 37° C. at a flow rate of 2 mL/min, while various agents were applied. [Ca2+]i was measured with a dual wavelength fluorescence microscope as previously described. The effect of exendin-(9-39) on the characteristically elevated intracellular calcium concentration of SUR-1^-/- islets was studied. […] As previously reported, amino acids caused a transient further rise in intracellular calcium.

[8] = tested on: wild-type littermate control mice; assay: Fasting blood glucose during continuous subcutaneous exendin-(9-39) infusion in wild-type littermates; type: in vivo, mouse; details: 150 pmol/kg/min s.c. pump
Description: (§2) SUR-1^−/− mice were kindly provided by Dr. Mark A. Magnuson. The generation and genotyping of SUR-1^−/− mice were previously described (8). Mice are maintained in a C57Bl/6 genetic background. Twelve to eighteen week SUR-1^−/− and wild-type littermatte control mice were used in all experiments. Mice were maintained on a 12:12-h light-dark cycle and were fed a standard rodent chow diet. All procedures were approved and carried out according to the University of Pennsylvania Institutional Animal Care and Use Committee guidelines. […]
(§3) For determination of fasting blood glucose levels mice were fasted for 12-16 hours. […] Blood glucose levels were measured using a hand-held glucose meter (FreeStyle; TheraSense, Alameda, Calif.). Insulin and glucagon were measured by ELISA (Mouse Endocrine Immunoassay Panel; Linco Research, Inc., St. Charles, Mo.).
(§4) Twelve-18 week old male SUR-1^−/− and wildtype littermates underwent a baseline evaluation including fasting blood glucose measurements and oral glucose tolerance testing, followed by randomization to treatment with exendin-(9-39) (150 pmol/kg/min) or vehicle (0.9% NaCl, 1% BSA). Fasting blood glucose levels were determined after an overnight fast on days 3 and 7 of the infusion. In addition, oral glucose tolerance and insulin sensitivity were evaluated during treatment. […]

SUR-1−/− mice [9] = assay: Fasting blood glucose during continuous subcutaneous exendin-(9-39) infusion in SUR-1−/− mice; type: in vivo, mouse; details: 150 pmol/kg/min s.c. pump, day 3, mean±SEM, vehicle 63.2±4.9
Description: as §2, §3, §4

SUR-1−/− islets [10] = assay: Insulin secretion in static incubations of isolated islets; type: cell-based, mouse
[11] = among the treatment groups, during treatment
[12] = fasting HI subject, i.v. ascending doses

exendin-(9-39)
Peripheral insulin sensitivity (insulin tolerance test) [1]: did not impact; also recorded: did not influence
Glucose tolerance (oral, 2 g/kg) (wild-type littermates): no effect
Insulin release in response to amino acid ramp stimulation (SUR-1−/− islets [2]; 100 nM exendin-(9-39), amino acid mixture 0-12 mM): blocked
Insulin response to KCl (SUR-1−/− islets [2]; presence vs absence of exendin-(9-39)): similar
Insulin/glucose ratio (SUR-1−/− mice [3]; SUR-1−/− mice, exendin-(9-39) treatment vs WT): normalized
Fasting glucagon levels (SUR-1−/− mice [3]; [11]): not different
Fasting insulin levels (SUR-1−/− mice [3]; [11]): not different
Glucose tolerance (oral, 2 g/kg) (SUR-1−/− mice [4]; SUR-1−/− mice during treatment): did not significantly impair; also recorded: did not influence
Return to baseline blood glucose levels after oral glucose (SUR-1−/− mice [4]; SUR-1−/− mice, 120 minute time point): minor delay
cAMP Content (SUR-1−/− islets [5]; 100 nM exendin-(9-39) with 4 mM amino acid mixture (AAM)): 20.9±4.4 pmol/100 islets
cAMP Content (SUR-1−/− islets [5]; 100 nM exendin-(9-39) with 4 mM amino acid mixture (AAM), listed as Exendin-(9-39)): 52.5 ± 9.4 ^c pmol/100 islets
cAMP Content (SUR-1−/− islets [5]; basal, 100 nM exendin-(9-39), no exogenous GLP-1, baseline 40.1±4.2): 20.5±2.3 pmol/100 islets
cAMP Content (SUR-1−/− islets [5]; basal, 100 nM exendin-(9-39), no exogenous GLP-1, baseline 40.1±4.2, listed as Exendin-(9-39)): 20.5 ± 2.3 ^a pmol/100 islets
Fasting blood glucose levels ([6]; another 2 human subjects): elevation
Blood glucose levels during infusion ([6]; fasting HI subject, i.v. 100, 300, 500 pmol/kg/min each 120 min, saline infusion dropped below 60): above 80 mg/dL
Fasting hypoglycemia [6, 12]: prevented
Plasma insulin [6, 12]: suppressed
Basal intracellular calcium (SUR-1−/− islets [7]): did not impact
Amino acid-stimulated rise in intracellular calcium (SUR-1−/− islets [7]; amino acids 4 mM): no effect
Basal intracellular calcium (SUR-1−/− islets [7]; listed as Exendin-(9-39)): did not affect
Fasting blood glucose levels vs vehicle-treated wild type controls [8]: not different
Fasting blood glucose levels (SUR-1−/− mice [9]): 82.2 ± 6.3 mg/dL
Insulin Secretion (SUR-1−/− islets [10]; 100 nM exendin-(9-39) with 4 mM AAM, AAM alone 389±17): 219±14 ng/100 islets/30 min
Insulin Secretion (SUR-1−/− islets [10]; 100 nM exendin-(9-39) with 4 mM AAM, AAM alone 389±17, listed as Exendin-(9-39)): 219 ± 14 ng/100 islets/30 min
Insulin Secretion (SUR-1−/− islets [10]; baseline, 100 nM exendin-(9-39), baseline without 221±22): 126±12 ng/100 islets/30 min
Insulin Secretion (SUR-1−/− islets [10]; baseline, 100 nM exendin-(9-39), baseline without 221±22, listed as Exendin-(9-39)): 126 ± 12 ^a ng/100 islets/30 min
